# Measured values taken from paper PMC8776063, “Aurora Kinase A Is Involved in Controlling the Localization of Aquaporin-2 in Renal Principal Cells” (International Journal of Molecular Sciences, 2022).
# Read-outs that look alike come from different tables or passages of the source.
# Legend:
# ABL1 = target: T1, ABL1 (Homo sapiens, UniProt P00519); experiment: Thermal shift assay; type: binding; conditions: read-out: ΔTm ABL1
# T1 construct: purchased in-house thermal shift (DSF) kinase panel (SGC Frankfurt); Promega NanoBRET for AURKA/B/C
# T1 sequence (P00519 229-512): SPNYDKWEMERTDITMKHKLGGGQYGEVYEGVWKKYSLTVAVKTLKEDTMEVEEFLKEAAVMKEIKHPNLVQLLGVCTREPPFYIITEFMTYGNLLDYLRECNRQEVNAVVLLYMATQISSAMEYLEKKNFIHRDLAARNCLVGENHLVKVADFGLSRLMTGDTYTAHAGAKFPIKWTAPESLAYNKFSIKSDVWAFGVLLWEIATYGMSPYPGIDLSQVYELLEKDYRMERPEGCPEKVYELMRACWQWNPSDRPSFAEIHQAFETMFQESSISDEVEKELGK
# AURKA [1] = target: T2, AURKA (Homo sapiens, UniProt O14965); experiment: Thermal shift assay; type: binding; conditions: read-out: ΔTm AURKA
# T2 construct: purchased in-house thermal shift (DSF) kinase panel (SGC Frankfurt); Promega NanoBRET for AURKA/B/C
# T2 sequence (O14965 122-403): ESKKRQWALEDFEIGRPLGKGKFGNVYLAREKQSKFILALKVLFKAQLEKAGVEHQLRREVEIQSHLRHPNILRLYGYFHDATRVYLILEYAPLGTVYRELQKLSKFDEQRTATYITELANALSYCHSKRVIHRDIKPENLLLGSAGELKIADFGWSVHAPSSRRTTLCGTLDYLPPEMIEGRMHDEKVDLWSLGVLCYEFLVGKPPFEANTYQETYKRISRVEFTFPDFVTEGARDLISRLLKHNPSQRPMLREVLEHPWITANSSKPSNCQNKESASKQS
# CLK1 = target: T3, CLK1 (Homo sapiens, UniProt P49759); experiment: Thermal shift assay; type: binding; conditions: read-out: ΔTm CLK1
# T3 construct: purchased in-house thermal shift (DSF) kinase panel (SGC Frankfurt); Promega NanoBRET for AURKA/B/C
# CSNK1D = target: T4, CSNK1D (Homo sapiens, UniProt P48730); experiment: Thermal shift assay; type: binding; conditions: read-out: ΔTm CSNK1D
# T4 construct: purchased in-house thermal shift (DSF) kinase panel (SGC Frankfurt); Promega NanoBRET for AURKA/B/C
# T4 sequence (P48730 1-294): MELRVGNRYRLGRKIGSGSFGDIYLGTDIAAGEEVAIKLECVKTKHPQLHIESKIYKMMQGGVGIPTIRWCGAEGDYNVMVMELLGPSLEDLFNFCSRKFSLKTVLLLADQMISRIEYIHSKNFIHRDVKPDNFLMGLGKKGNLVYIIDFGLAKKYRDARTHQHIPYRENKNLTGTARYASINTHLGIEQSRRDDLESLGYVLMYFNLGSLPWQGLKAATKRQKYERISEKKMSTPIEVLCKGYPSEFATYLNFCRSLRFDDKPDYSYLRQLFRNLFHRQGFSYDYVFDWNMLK
# DYRK1A = target: T5, DYRK1A (Homo sapiens, UniProt Q13627); experiment: Thermal shift assay; type: binding; conditions: read-out: ΔTm DYRK1A
# T5 construct: purchased in-house thermal shift (DSF) kinase panel (SGC Frankfurt); Promega NanoBRET for AURKA/B/C
# EPHA2 = target: T6, EPHA2 (Homo sapiens, UniProt P29317); experiment: Thermal shift assay; type: binding; conditions: read-out: ΔTm EPHA2
# T6 construct: purchased in-house thermal shift (DSF) kinase panel (SGC Frankfurt); Promega NanoBRET for AURKA/B/C
# T6 sequence (P29317 596-900): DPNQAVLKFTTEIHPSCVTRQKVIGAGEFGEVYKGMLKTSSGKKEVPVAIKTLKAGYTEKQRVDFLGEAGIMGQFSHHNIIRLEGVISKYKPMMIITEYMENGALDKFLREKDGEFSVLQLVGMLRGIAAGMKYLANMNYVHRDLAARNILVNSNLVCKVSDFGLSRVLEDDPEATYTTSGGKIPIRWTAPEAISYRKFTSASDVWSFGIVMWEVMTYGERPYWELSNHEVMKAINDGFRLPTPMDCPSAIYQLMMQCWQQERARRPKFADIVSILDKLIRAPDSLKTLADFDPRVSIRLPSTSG
# GSK3B = target: T7, GSK3B (Homo sapiens, UniProt P49841); experiment: Thermal shift assay; type: binding; conditions: read-out: ΔTm GSK3B
# T7 construct: purchased in-house thermal shift (DSF) kinase panel (SGC Frankfurt); Promega NanoBRET for AURKA/B/C
# STK38L = target: T8, STK38L (Homo sapiens, UniProt Q9Y2H1); experiment: Thermal shift assay; type: binding; conditions: read-out: ΔTm STK38L
# T8 construct: purchased in-house thermal shift (DSF) kinase panel (SGC Frankfurt); Promega NanoBRET for AURKA/B/C
# AURKA [2] = target: T9, AURKA (Homo sapiens, UniProt O14965); experiment: NanoBRET assay in HEK293T cells; type: cell-based
# T9 construct: full-length wild-type AURKA, AURKB, and AURKC were obtained as plasmids cloned in frame with a C-terminal NanoLuc-fusion; host or cells: HEK293T
# T9 sequence (O14965 1-403): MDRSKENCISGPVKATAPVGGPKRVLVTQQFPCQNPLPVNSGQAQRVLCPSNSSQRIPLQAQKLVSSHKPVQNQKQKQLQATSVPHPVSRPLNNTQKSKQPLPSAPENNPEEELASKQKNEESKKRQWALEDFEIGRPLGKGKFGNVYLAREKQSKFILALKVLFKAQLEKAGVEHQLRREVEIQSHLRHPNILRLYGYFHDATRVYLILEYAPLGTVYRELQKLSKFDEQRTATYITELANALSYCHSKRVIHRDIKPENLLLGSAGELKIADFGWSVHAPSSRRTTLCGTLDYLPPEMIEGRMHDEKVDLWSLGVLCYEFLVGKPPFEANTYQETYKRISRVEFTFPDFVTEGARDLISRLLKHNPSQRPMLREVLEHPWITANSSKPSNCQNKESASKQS
# MCD4 cells = experiment: F-actin stress fiber staining (phalloidin); type: cell-based, mouse; conditions: compound 30 µM, 1 h
# primary IMCD cells = experiment: F-actin stress fiber staining (phalloidin); type: cell-based, rat; conditions: compound 20 µM, 1 h
# AURKB = AURKB (Homo sapiens, UniProt Q96GD4); experiment: NanoBRET assay in HEK293T cells; type: cell-based; design: full-length wild-type AURKA, AURKB, and AURKC were obtained as plasmids cloned in frame with a C-terminal NanoLuc-fusion; host or cells: HEK293T
# [3] = NanoBRET, HEK293T cells overexpressing the kinase, Table 2, read-out: AURKB IC50
# [4] = NanoBRET, HEK293T cells overexpressing the kinase, Table 2, read-out: AURKA IC50
# [5] = NanoBRET, n = 2, mean, Figure 6B, read-out: affinity to intracellular AURKB
# T7 sequence (P49841 35-386): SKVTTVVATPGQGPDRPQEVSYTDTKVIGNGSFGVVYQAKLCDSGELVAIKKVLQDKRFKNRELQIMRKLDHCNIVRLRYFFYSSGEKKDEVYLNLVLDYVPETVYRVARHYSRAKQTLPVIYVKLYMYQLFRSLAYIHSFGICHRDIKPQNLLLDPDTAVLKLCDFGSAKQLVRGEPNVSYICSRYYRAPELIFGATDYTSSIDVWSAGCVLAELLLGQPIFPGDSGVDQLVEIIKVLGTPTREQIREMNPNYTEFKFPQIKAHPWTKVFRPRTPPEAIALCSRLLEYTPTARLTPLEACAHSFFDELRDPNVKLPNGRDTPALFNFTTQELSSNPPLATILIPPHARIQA
# Chain of AURKB (Q96GD4 whole entry, the tested form may be a part): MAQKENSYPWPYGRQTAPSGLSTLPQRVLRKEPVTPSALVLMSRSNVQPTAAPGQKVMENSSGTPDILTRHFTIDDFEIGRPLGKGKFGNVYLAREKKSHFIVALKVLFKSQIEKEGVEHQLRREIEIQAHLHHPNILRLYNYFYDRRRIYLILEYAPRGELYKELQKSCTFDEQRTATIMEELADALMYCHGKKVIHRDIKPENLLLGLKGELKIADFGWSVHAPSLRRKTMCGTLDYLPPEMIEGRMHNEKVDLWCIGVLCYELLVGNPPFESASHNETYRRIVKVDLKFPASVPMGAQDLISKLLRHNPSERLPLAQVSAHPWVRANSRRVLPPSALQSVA
# T3 sequence (P49759 148-484): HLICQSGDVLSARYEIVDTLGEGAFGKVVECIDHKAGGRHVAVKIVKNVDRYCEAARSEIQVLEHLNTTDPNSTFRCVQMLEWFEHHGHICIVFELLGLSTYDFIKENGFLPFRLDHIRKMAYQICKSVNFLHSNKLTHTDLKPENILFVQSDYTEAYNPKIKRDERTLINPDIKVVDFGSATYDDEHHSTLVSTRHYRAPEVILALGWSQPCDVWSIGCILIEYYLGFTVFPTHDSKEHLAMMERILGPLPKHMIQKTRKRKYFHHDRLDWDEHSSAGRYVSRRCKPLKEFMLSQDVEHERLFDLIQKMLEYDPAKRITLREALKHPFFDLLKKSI
# T8 sequence (Q9Y2H1 90-453): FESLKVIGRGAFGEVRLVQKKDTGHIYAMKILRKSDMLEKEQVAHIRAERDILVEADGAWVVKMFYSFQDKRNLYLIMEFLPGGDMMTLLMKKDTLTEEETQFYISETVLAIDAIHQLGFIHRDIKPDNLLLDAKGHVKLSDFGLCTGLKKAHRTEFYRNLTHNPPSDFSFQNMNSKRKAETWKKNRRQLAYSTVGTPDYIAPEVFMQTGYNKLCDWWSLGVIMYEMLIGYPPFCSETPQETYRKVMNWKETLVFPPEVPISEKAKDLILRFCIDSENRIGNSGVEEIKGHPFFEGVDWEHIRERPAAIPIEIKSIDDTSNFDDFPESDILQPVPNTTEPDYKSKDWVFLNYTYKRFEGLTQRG
Structure (SMILES),"ΔTm at 10 µM (ABL1; compound 10 µM, n = 3) [°C]","ΔTm at 10 µM (AURKA [1]; compound 10 µM, n = 3) [°C]","ΔTm at 10 µM (CLK1; compound 10 µM, n = 3) [°C]","ΔTm at 10 µM (CSNK1D; compound 10 µM, n = 3) [°C]","ΔTm at 10 µM (DYRK1A; compound 10 µM, n = 3) [°C]","ΔTm at 10 µM (EPHA2; compound 10 µM, n = 3) [°C]","ΔTm at 10 µM (GSK3B; compound 10 µM, n = 3) [°C]","ΔTm at 10 µM (STK38L; compound 10 µM, n = 3) [°C]",effect on actin stress fibers (MCD4 cells),effect on actin stress fibers (primary IMCD cells),IC50 (AURKB; [3]) [µM],IC50 (AURKA [2]; [4]) [µM],IC50 (AURKB; [5]) [µM],further results
O=C(Cc1ccc(Nc2ncc(F)c(Nc3ccc(C(=O)Nc4ccccc4Cl)cc3)n2)cc1)NCCN1CCOCC1 [ERJ2-04],1.1,13,0.4,0,-0.7,0.3,2,1.5,Comparable effects,Comparable effects,> 50,–,–,"IC50 (AURKA [2]; NanoBRET, n = 2, mean, Figure 6B, read-out: affinity to intracellular AURKA): 0.558 µM"
CCN1CCN(C(=O)Cc2ccc(Nc3ncc(F)c(Nc4ccc(C(=O)O)cc4)n3)cc2)CC1 [ERJ2-12],2.6,9.5,0.5,0.2,-1.3,1.6,1,0.2,resembled those of the control cells,resembled those of the control cells,> 50,> 50,–,–
"CCN1CCN(C(=O)Cc2ccc(Nc3ncc(F)c(Nc4ccc(C(=O)Nc5ccccc5Cl)cc4)n3)cc2)CC1 [Aurora-A inhibitor I, reference compound]",–,–,–,–,–,–,–,–,depolymerization of actin stress fibers,depolymerization of actin stress fibers,–,–,–,ΔTm at 10 µM (ABL1): 3.1 °C; ΔTm at 10 µM (AURKA [1]): 15.2 °C; ΔTm at 10 µM (CLK1): 1.5 °C; ΔTm at 10 µM (CSNK1D): 0.2 °C; ΔTm at 10 µM (DYRK1A): 0.4 °C; ΔTm at 10 µM (EPHA2): 1.4 °C; ΔTm at 10 µM (GSK3B): 3.1 °C; ΔTm at 10 µM (STK38L): 2.1 °C; IC50 (AURKA [2]): 0.183 µM; IC50 (AURKB): > 50 µM
NC(=O)Cc1ccc(Nc2ncc(F)c(Nc3ccc(C(=O)Nc4ccccc4Cl)cc3)n2)cc1 [ERJ2-06],1.7,15.5,1.7,0,0.8,0.8,3.1,2.5,Comparable effects,Comparable effects,–,0.165,13.6,–
CCN1CCN(C(=O)Cc2ccc(Nc3ncc(F)c(Nc4ccc(C(=O)Nc5ccccc5)cc4)n3)cc2)CC1 [ERJ2-11],3.6,13.8,1.5,0.2,-0.6,1.8,3.6,2.6,promoted or maintained the formation of actin stress fibers,promoted or maintained the formation of actin stress fibers,–,0.767,43,–
